Source: patent US20140213538A1, “LYSOPHOSPHATIDIC ACID RECEPTOR ANTAGONISTS” (InterMune, Inc., priority 2013, published 2014)
pEC50: −log10 of the molar value.

Tests used:
LPA/S1P GPCR of interest = target: T1, LPA/S1P GPCR of interest (Homo sapiens, UniProt Q92633); assay: Beta-Arrestin based assay (PathHunter); assay type: cell-based
T1 construct: host or cells: CHO
In short: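 EA Parental CHO cells (DiscoverX) were transfected with FuGENE (Roche) using CMV promoter-driven DNA constructs encoding the LPA/S1P GPCR of interest fused to a ProLink tag. Beta-arrestin recruitment in agonist mode was assessed 24-48 hrs later with PathHunter kits. Tests ran in quadruplicate in white 384 well plates, and end point luminescence was fit to a 4 parameter logistic function.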

LPA1 = LPA1 (Homo sapiens, UniProt Q92633); assay: LPA1 Migration Assay (Oris); assay type: cell-based; parameters: host or cells: primary fibroblasts (lung, dermal), HFL-1, 3T3 and CHO cells expressing LPA1R; settings: read-out: Cell Migration EC50
Chain of LPA1 (Q92633 whole entry): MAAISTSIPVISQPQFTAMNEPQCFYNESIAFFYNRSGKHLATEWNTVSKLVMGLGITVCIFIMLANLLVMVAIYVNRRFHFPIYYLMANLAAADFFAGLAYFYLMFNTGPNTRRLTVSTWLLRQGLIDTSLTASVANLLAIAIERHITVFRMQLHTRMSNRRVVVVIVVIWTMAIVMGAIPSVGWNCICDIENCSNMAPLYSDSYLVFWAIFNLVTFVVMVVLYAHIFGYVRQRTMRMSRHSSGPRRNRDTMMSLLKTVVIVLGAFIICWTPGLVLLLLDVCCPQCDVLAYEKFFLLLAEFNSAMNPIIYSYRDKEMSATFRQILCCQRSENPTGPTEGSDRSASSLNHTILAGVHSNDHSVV
Text: LPA1 Migration Assay Migration of primary fibroblasts (including lung, dermal), HFL-1, 3T3 and CHO cells expressing LPA1R were monitored using the Oris™ assay (Platypus Technologies, Madison, Wis.). These cells were dye (Cell Tracker Green™) loaded and serum starved for 12-24 hrs. In response to chemoattractants such as LPA and serum, the cells migrated inward in to the exclusion (detection) zone. After fixing, fluorescent cells in the detection zone were counted using a high content reader. The ability of LPA1 antagonists to inhibit cell migration is quantified by plotting cell number vs. compound concentration and curve fitting the resulting dose-response curve to a 4 parameter logistic function.

T1 sequence (Q92633 whole entry): as above

Row | SMILES | pEC50 (LPA/S1P GPCR of interest) | pEC50 (LPA1)
1 | CC(=O)N(C(C)=O)S(=O)(=O)c1ccc(-c2ccc(-c3onc(C)c3NC(=O)O[C@H](C)c3ccccc3)cc2)cc1 [IT130] | < 6.30 | < 6.30
2 | Cc1noc(-c2ccc(-c3ccc4c(c3)CC(C)(C(=O)O)O4)cc2)c1NC(=O)O[C@H](C)c1ccccc1 (some centres unmarked) [IT498] | > 7.30 | 6.30 to 7.30
3 | C[C@@H](OC(=O)Nc1c(-c2cc3sc(-c4cc(F)c(CC(=O)O)c(F)c4)cc3s2)cnn1C)c1ccccc1 [IT157] | 6.30 to 7.30 | < 6.30
4 | Cc1noc(-c2ccc(-c3ccc(Oc4ccc(F)cc4C(=O)O)cc3)cc2)c1NC(=O)O[C@H](C)c1ccccc1 [IT459] | > 7.30 | 6.30 to 7.30
5 | C[C@@H](OC(=O)Nc1c(C#Cc2cc3sc(C4(C(=O)O)CC4)cc3s2)cnn1C)c1c(F)c(F)c(F)c(F)c1F [IT118] | < 6.30 | < 6.30
6 | C[C@@H](OC(=O)Nc1c(-c2ccc(-c3ccc(Oc4cccc(F)c4C(=O)O)cc3)cc2)nnn1C)c1ccccc1 [IT455] | > 7.30 | > 7.30
7 | C[C@@H](OC(=O)Nc1c(-c2cc3sc(-c4ccc(C5(C(=O)O)CC5)cc4Cl)cc3s2)nnn1C)c1ccccc1 [IT390] | > 7.30 | 6.30 to 7.30
8 | Cc1nsc(-c2ccc(-c3ccc(CC(=O)O)s3)cc2)c1NC(=O)O[C@H](C)c1ccccc1 [IT141] | < 6.30 | < 6.30
9 | Cc1c(C#Cc2cnn(C)c2NC(=O)O[C@H](C)c2ccccc2)sc2c(C)c(C3(C(=O)O)CC3)sc12 [IT110] | > 7.30 | 6.30 to 7.30
10 | Cc1noc(-c2ccc(-c3cc(F)c(OC(C)(C)C(=O)O)c(F)c3)cc2)c1NC(=O)O[C@H](C)c1ccccc1 [IT500] | > 7.30 | 6.30 to 7.30
11 | C[C@@H](OC(=O)Nc1c(-c2ccc(-c3cc(F)c(OC4(C(=O)O)CC4)c(F)c3)cc2)cnn1C)c1ccccc1 [IT314] | > 7.30 | < 6.30
12 | COc1cc(CC(=O)O)ccc1-c1cc2sc(-c3nnn(C)c3NC(=O)O[C@H](C)c3ccccc3)cc2s1 [IT183] | < 6.30 | < 6.30
13 | Cc1onc(-c2cc3sc(C#CC4(C(=O)O)CC4)cc3s2)c1NC(=O)O[C@H](C)c1ccccc1 [IT418] | > 7.30 | 6.30 to 7.30
14 | Cc1cc(C2(C(=O)O)CC2)ccc1-c1cc2sc(-c3cnn(C)c3NC(=O)O[C@H](C)c3ccccc3)cc2s1 [IT260] | > 7.30 | 6.30 to 7.30
15 | C[C@@H](OC(=O)Nc1c(-c2cc3sc(-c4ccc(CC(=O)O)cc4)cc3s2)cnn1C)c1ccccc1 [IT132] | 6.30 to 7.30 | < 6.30
16 | COC(=O)c1ccccc1Oc1ccc(-c2ccc(-c3nnn(C)c3NC(=O)O[C@H](C)c3ccccc3)cc2)cc1 [IT478] | 6.30 to 7.30 | 6.30 to 7.30
17 | C[C@@H](OC(=O)Nc1c(-c2cc3sc(-c4ccc(C5(C(=O)O)CC5)cc4F)cc3s2)nnn1C)c1ccccc1 [IT246] | > 7.30 | 6.30 to 7.30
18 | Cc1noc(-c2ccc(-c3ccc(Oc4nc5ccccc5cc4C(=O)O)cc3)cc2)c1NC(=O)O[C@H](C)c1ccccc1 [IT482] | > 7.30 | 6.30 to 7.30
19 | C[C@@H](OC(=O)Nc1c(-c2cc3sc(-c4ccc(C5(C(=O)O)CC5)c(F)c4)cc3s2)nnn1C)c1ccccc1 [IT296] | > 7.30 | 6.30 to 7.30
20 | C[C@@H](OC(=O)Nc1c(-c2ccc(-c3ccc(OC4(C(=O)O)CC4)cc3)cc2)cnn1C)c1ccccc1 [IT511] | > 7.30 | 6.30 to 7.30
21 | CCOc1cc(CC(=O)O)ccc1-c1cc2sc(-c3snc(C)c3NC(=O)O[C@H](C)c3ccccc3)cc2s1 [IT192] | < 6.30 | < 6.30
22 | C[C@@H](OC(=O)Nc1c(-c2cc3sc(-c4ccc(CC(=O)O)s4)cc3s2)cnn1C)c1ccccc1 [IT147] | 6.30 to 7.30 | < 6.30
23 | C[C@@H](OC(=O)Nc1c(-c2ccc(-c3cc(F)c(OC(C)(C)C(=O)O)c(F)c3)cc2)cnn1C)c1ccccc1 [IT503] | 6.30 to 7.30 | < 6.30
24 | Cc1noc(-c2ccc(-c3ccc(S(=O)(=O)NC(=O)C4CC4)cc3)cc2)c1NC(=O)O[C@H](C)c1ccccc1 [IT138] | > 7.30 | 6.30 to 7.30
25 | Cc1noc(-c2ccc(-c3ccc(Oc4cc(F)ccc4C(=O)O)cc3)cc2)c1NC(=O)O[C@H](C)c1ccccc1 [IT467] | > 7.30 | 6.30 to 7.30
26 | C[C@@H](OC(=O)Nc1c(-c2cc3sc(-c4ccc(CC(=O)O)cc4F)cc3s2)cnn1C)c1ccccc1 [IT134] | 6.30 to 7.30 | < 6.30
27 | Cc1nnn(-c2ccc(-c3cc(F)c(OC4(C(=O)O)CC4)c(F)c3)cc2)c1NC(=O)O[C@H](C)c1ccccc1 [IT313] | 6.30 to 7.30 | < 6.30
28 | CCOc1cc(CC(=O)O)ccc1-c1cc2sc(-c3nnn(C)c3NC(=O)O[C@H](C)c3ccccc3)cc2s1 [IT191] | < 6.30 | < 6.30

Row | SMILES | pEC50 (LPA/S1P GPCR of interest) | pEC50 (LPA1)
29 | Cc1noc(-c2ccc(-c3ccc(Oc4cnccc4C(=O)O)cc3)cc2)c1NC(=O)O[C@H](C)c1ccccc1 [IT257] | > 7.30 | 6.30 to 7.30
30 | Cc1nsc(-c2cc3sc(-c4ccc(CC(=O)O)cc4N)cc3s2)c1NC(=O)O[C@H](C)c1ccccc1 [IT182] | < 6.30 | < 6.30
31 | C[C@@H](OC(=O)Nc1c(-c2cc3sc(-c4ccc(CC(=O)O)c(Cl)c4)cc3s2)nnn1C)c1ccccc1 [IT166] | 6.30 to 7.30 | < 6.30
32 | C[C@@H](OC(=O)Nc1c(-c2ccc(-c3ccc(OC4(C(=O)O)CC4)cc3)cc2)oc2ccccc12)c1ccccc1 [IT512] | 6.30 to 7.30 | < 6.30
33 | Cc1nsc(-c2cc3sc(-c4cnc(C5(C(=O)O)CC5)c(F)c4)cc3s2)c1NC(=O)O[C@H](C)c1ccccc1 [IT394] | > 7.30 | 6.30 to 7.30
34 | Cc1noc(-c2ccc(-c3ccc(NS(C)(=O)=O)cc3)cc2)c1NC(=O)O[C@H](C)c1ccccc1 [IT195] | 6.30 to 7.30 | < 6.30
35 | C[C@@H](OC(=O)Nc1c(-c2cc3sc(-c4ccc(Oc5ccccc5C(=O)O)cc4)cc3s2)cnn1C)c1ccccc1 [IT406] | > 7.30 | 6.30 to 7.30
36 | C[C@@H](OC(=O)Nc1c(-c2ccc(-c3ccc(Oc4ccc(F)cc4C(=O)O)cc3)cc2)nnn1C)c1ccccc1 [IT460] | > 7.30 | > 7.30
37 | CCOc1cc(CC(=O)O)ccc1-c1cc2sc(-c3cnn(C)c3NC(=O)O[C@H](C)c3ccccc3)cc2s1 [IT190] | < 6.30 | < 6.30
38 | C[C@@H](OC(=O)Nc1c(-c2ccc(-c3ccc(CC(=O)O)s3)cc2)nnn1C)c1ccccc1 [IT178] | 6.30 to 7.30 | < 6.30
39 | C[C@@H](OC(=O)Nc1c(-c2cc3sc(-c4ccc(CC(=O)O)cc4Cl)cc3s2)nnn1C)c1ccccc1 [IT168] | < 6.30 | < 6.30
40 | Cc1nnn(-c2ccc(-c3ccc(Oc4ccccc4C(=O)O)cc3)cc2)c1NC(=O)O[C@H](C)c1ccccc1 [IT310] | 6.30 to 7.30 | < 6.30
41 | C[C@@H](OC(=O)Nc1c(C#Cc2cc(F)c(OC3(C(=O)O)CC3)c(F)c2)cnn1C)c1ccccc1 [IT311] | 6.30 to 7.30 | 6.30 to 7.30
42 | CNS(=O)(=O)c1ccc(-c2ccc(-c3onc(C)c3NC(=O)O[C@H](C)c3ccccc3)cc2)cc1 [IT128] | < 6.30 | < 6.30
43 | C[C@@H](OC(=O)Nc1c(-c2cc3sc(-c4cc(Cl)c(CC(=O)O)cc4F)cc3s2)nnn1C)c1ccccc1 [IT186] | < 6.30 | < 6.30
44 | COc1cc(CC(=O)O)ccc1-c1cc2sc(-c3cnn(C)c3NC(=O)O[C@H](C)c3ccccc3)cc2s1 [IT162] | < 6.30 | < 6.30
45 | Cc1nsc(-c2ccc(-c3cc(F)c(Oc4ccsc4C(=O)O)c(F)c3)cc2)c1NC(=O)O[C@H](C)c1ccccc1 [IT462] | > 7.30 | > 7.30
46 | Cc1nsc(-c2ccc(-c3cc(F)c(Oc4ccncc4C(=O)O)c(F)c3)cc2)c1NC(=O)O[C@H](C)c1ccccc1 [IT439] | > 7.30 | < 6.30
47 | C[C@@H](OC(=O)Nc1c(-c2ccc(-c3ccc(Oc4cc(F)ccc4C(=O)O)cc3)cc2)nnn1C)c1ccccc1 [IT468] | > 7.30 | > 7.30
48 | Cc1nsc(-c2ccc(NC(=O)c3csc(C4(C(=O)O)CC4)c3)cc2)c1NC(=O)O[C@H](C)c1ccccc1 [IT193] | 6.30 to 7.30 | < 6.30
49 | Cc1nsc(-c2cc3sc(-c4cc(F)c(CC(=O)O)c(F)c4)cc3s2)c1NC(=O)O[C@H](C)c1ccccc1 [IT156] | 6.30 to 7.30 | < 6.30
50 | Cc1noc(C#Cc2ccc(NC3(C(=O)O)CC3)cc2)c1NC(=O)O[C@H](C)c1ccccc1 [IT006] | 6.30 to 7.30 | 6.30 to 7.30
51 | C[C@@H](OC(=O)Nc1c(-c2cc3sc(-c4ccc5[nH]cc(CC(=O)O)c5c4)cc3s2)cnn1C)c1ccccc1 [IT188] | 6.30 to 7.30 | < 6.30
52 | C[C@@H](OC(=O)Nc1c(-c2cc3sc(-c4ccc(C5(C(=O)O)CC5)c(F)c4)cc3s2)cnn1C)c1ccccc1 [IT295] | > 7.30 | 6.30 to 7.30
53 | Cc1nnn(-c2ccc(-c3cc(F)c(Oc4ccncc4C(=O)O)c(F)c3)cc2)c1NC(=O)O[C@H](C)c1ccccc1 [IT440] | 6.30 to 7.30 | < 6.30
54 | Cc1noc(-c2ccc(-c3ccc(Oc4nnccc4C(=O)O)cc3)cc2)c1NC(=O)O[C@H](C)c1ccccc1 [IT231] | 6.30 to 7.30 | 6.30 to 7.30
55 | C[C@@H](OC(=O)Nc1c(-c2ccc(-c3ccc(C(C(=O)O)C4COC4)cc3)cc2)cnn1C)c1ccccc1 (some centres unmarked) [IT150] | 6.30 to 7.30 | 6.30 to 7.30
